Measurements from patent US20250235423A1, “USES OF AMINO ACID-CHELATED ZINC, INCLUDING IMMUNE REGULATION AND TREATMENT OF AUTOIMMUNE DISEASE” (FAAC Bio Inc., priority 2024, published 2025).

Key:
[1] = test system: CIA rat; assay: Paw volume (average weight percentage of both paws) in collagen-induced arthritis (CIA) animal model; type: in vivo, Lewis rats; settings: for Weight percentages of the rats' paws on Day 24 (FIG. 4): Day 24, compared to the untreated CIA rats (p value<0.05); for Weight percentages of the rats' paws over time (FIG. 3): after administration from Day 17, compared to the CIA group
Experimental: (§1) Lewis rats were bred under the condition with a temperature of 21° C. to 25° C., a humidity level of 40% to 70%, and a lighting period of 12 hours (7 a.m. to 7 p.m.). The rats had free access to the feed. All the rats were monitored for at least 6 days to ensure their health to prepare a collagen-induced arthritis (CIA) animal model.
(§2) A collagen emulsion was prepared by evenly mixing collagen and IFA at a volume ratio of 1:1 using a homogenizer in a cold water bath. On Day 1, 200 μL of the collagen emulsion was injected subcutaneously at the base of the rat's tail, followed by a booster injection of 100 μL of the collagen emulsion at a different site on the base of the tail on Day 8. All the rats successfully developed CIA by Day 17 (hereinafter referred to as “CIA rat”).
(§3) As described in Preparation example C, all the rats successfully developed CIA by Day 17. Therefore, the CIA rats were randomly divided into four groups from Day 17 to administer the following solutions until the rats were sacrificed on Day 24, wherein the healthy rats not to induce arthritis were served as the control group: • (1) Control group (five healthy rats): 2 mL of PBS; • (2) CIA group (five CIA rats): 2 mL of PBS; • (3) MTX group (three CIA rats): 1 mg of MTX per kilogram of rat, dissolved in 2 mL of PBS; • (4) CMC-Zn group (five CIA rats): CMC-Zn at a zinc concentration of 0.075 mg, dissolved in 2 mL of PBS; and • (5) Modified CMC-Zn group (five CIA rats): modified CMC-Zn at a zinc concentration of 0.075 mg, dissolved in 2 mL of PBS.
(§4) The rat's paws were observed and their paw volumes were measured on Days 0, 3, 7, 10, 14, 17, 21 and 24. The arthritis severity of rats was evaluated by using the qualitative scoring system of Table 3, and the paw volume was determined by the following approach in accordance with the buoyancy principle of Archimedes' law: adding an appropriate amount of water into a beaker; placing the beaker on a scale and resetting to zero; placing the rat's paw into the water and immersing it to the target depth; and recoding the reading once it had stabilized.

[2] = test system: CIA rat; assay: Arthritis severity score in collagen-induced arthritis (CIA) animal model; type: in vivo, Lewis rats; set-up: Arthritis severity score: scale not given here; settings: CIA rats; for Progression of arthritis severity after Day 17: compared to the CIA group
Experimental: as §1, §2, §3, §4

[3] = test system: IL12P70; assay: ELISA analysis of IL12P70 in the medium of treated BMDCs; type: cell-based, mouse; settings: BMDC media, all groups of the substance
Experimental: The secretion level of IL12P70 in immature DCs is very low, whereas mature DCs secret a large amount of IL12P70, allowing it an indicator of DC maturation. In this example, the expression levels of the surface markers (CD11c, CD40, CD83, CD86) on the BMDCs were analyzed using flow cytometry, and the secretion level of IL12p70 in the BMDCs' medium was measured with an ELISA kit, to observe the effects of amino acid-chelated zinc on dendritic cell maturation.
(§5) After culturing for 48 hours, the cells and their medium in each group were collected to conduct the following analysis, respectively.
The media obtained from each group were placed into tubes, respectively, and the tubes were centrifuged (400×g) at 4° C. for 10 minutes to collect the supernatants. The IL12p70 standard was subjected to a serial dilution to provide a standard curve. The standards at various concentrations and the supernatants obtained from each group were added into a 96-well plate pre-coating with IL12p70 antibodies (100 μL per well, in duplicate). […] The absorbance value at 450 nm (OD450) in each well was detected within 3 minutes. Based on the standard curve resulted from the absorbance values of IL12p70 standards at various concentrations, the IL12p70 amounts corresponding to the absorbance values of each group were calculated as shown in Table 2.

[4] = test system: mouse bone marrow dendritic cells (BMDCs); assay: Flow cytometry analysis of dendritic cell maturation surface markers on treated BMDCs; type: cell-based; settings: for Ability to inhibit dendritic cell maturation: all zinc concentrations, directly proportional to the zinc concentration; for CD11c expression level / CD40 expression level / CD80 expression level / CD83 expression level / CD86 expression level / MHC II expression level: 48 hours
Experimental: Mice were sacrificed with carbon dioxide and immersed in 75% alcohol. After immersing for 3 minutes, the mice were removed from the alcohol and wiped. Then, the mouse limbs were fixed on a Styrofoam board. Next, the entire femur and tibia were collected by carefully cutting off the mouse skin and muscle. A filter (100 μm) was placed in a 3-cm dish and 2 ml of RPMI-1640 medium was added into the dish. Two ends of the femur were cut, and the bone marrow was collected by repeatedly washing the femur with the cell medium using a 26 G syringe until the femur appeared white. The bone marrow in the tibia was also collected by the same method. The filter was scraped by the reverse side of 1 mL tip to break up the cell clumps in the bone marrow and washed with the cell medium in the dish several times. Then, the cell medium in the dish was collected and placed into a tube to centrifuge at 1500 rpm for 3 minutes. After centrifuging, the supernatant was removed and 1 mL of RBC lysis buffer was added into the tube. After standing for 5 minutes, the tube was centrifuged at 1500 rpm for 3 minutes again. After removing the supernatant, a milky-white pellet was obtained. The pellet was re-suspended with the DC medium and the cell number of the suspension thus obtained was counted.
The cell concentration of the suspension was adjusted to 5×10^5 cells per mL. 1 mL of the suspension was added into each well of a 24-well plate. The 24-well plate was incubated at 37.5° C. and 5% CO2 for 2 days. The unattached granulocytes were removed by carefully removing the cell medium, and then, 0.5 mL of DC medium was added into each well of the 24-well plate. After incubating 3 days, the medium in each well was replaced with 0.5 mL of fresh DC medium and continuously incubated for 3 days. The 24-well plate was taken out from the incubator, and the medium in each well was carefully removed. The bottom of each well was gently pipetted with 2 mL of PBS several times. The pipetted PBS was collected into a centrifuge tube to count the number of cells and analyze the expression level of CD11c using flow cytometry.
as §5
The cells obtained from (1-1) were counted and the cell concentration was adjusted with PBS to provide a cell suspension of 1×10^5 cells to 5×10^5 cells per 100 μL. 100 μL of the cell suspension was evenly mixed with 20 μL of FcR Blocking Reagent, and the mixture thus obtained was placed at 4° C. for 10 minutes. Furthermore, the antibodies of CD11c, CD40, CD80, CD83, CD86, MHC II and corresponding isotype control were added into the tubes containing the mixture, respectively. After vortexing for 1 second, the tubes were placed at room temperature in the dark for 15 minutes. Then, 300 μL of PBS was added into each tube, and after vortexing for 1 second, the tubes were centrifuged at 200×g for 5 minutes. The resulting supernatants were removed and the cells were re-suspended with 300 μL of PBS. Finally, the cell suspensions thus obtained were analyzed by flow cytometry, wherein all the cell suspension of each group were kept on ice in the dark until the analysis was conducted.

[5] = Day 0 (before administration, which starts Day 17)
[6] = Day 17 (start of administration)
[7] = Day 21, administered from Day 17
[8] = Day 24, administered from Day 17
[9] = zinc concentration 3.27 mg/mL (low concentration)
[10] = zinc concentration 6.54 mg/mL (medium concentration)
[11] = zinc concentration 13.08 mg/mL (high concentration)

Compound	Weight percentages of the rats' paws on Day 24 (FIG. 4) [1]	Weight percentages of the rats' paws over time (FIG. 3) [1]	Arthritis severity score [2, 5]	Arthritis severity score ([2]; Day 3 (before administration))	Arthritis severity score ([2]; Day 7 (before administration))	Arthritis severity score ([2]; Day 10 (before administration))	Arthritis severity score ([2]; Day 14 (before administration))	Arthritis severity score [2, 6]	Arthritis severity score [2, 7]	Arthritis severity score [2, 8]	Progression of arthritis severity after Day 17 [2]	IL12P70 in the media [3]	Ability to inhibit dendritic cell maturation [4]	CD11c expression level [4, 9]	CD40 expression level [4, 9]	CD80 expression level [4, 9]	CD83 expression level [4, 9]	CD86 expression level [4, 9]	MHC II expression level [4, 9]	CD11c expression level [4, 10]	also measured
CN(Cc1cnc2nc(N)nc(N)c2n1)c1ccc(C(=O)N[C@@H](CCC(=O)O)C(=O)O)cc1 [MTX, Methotrexate, reference compound]	significantly decreased	gradually decreased	0	0	0	0	0.3	3.7	3.7	3	slower progression or even reduction in arthritis severity										
O=S(=O)([O-])[O-].[Zn+2] [Zinc sulfate, reference compound]												not detected	demonstrated the ability to inhibit dendritic cell maturation	87.2	16.1	46.7	12.9	49.2	16.8	85.4	CD40 expression level [4, 10]: 11.2; CD80 expression level [4, 10]: 37.2; CD83 expression level [4, 10]: 10.4; CD86 expression level [4, 10]: 41.3; MHC II expression level [4, 10]: 11.9; CD11c expression level [4, 11]: 85.6; CD40 expression level [4, 11]: 8.5; CD80 expression level [4, 11]: 26.8; CD83 expression level [4, 11]: 6.68; CD86 expression level [4, 11]: 26; MHC II expression level [4, 11]: 8.08
glycine-chelated zinc [CMC-Zn]	significantly decreased	gradually decreased	0	0	0	0	0.4	3.8	4.4	4.6	slower progression or even reduction in arthritis severity	not detected	demonstrated the ability to inhibit dendritic cell maturation	88.3	25	39	16.1	37.9	25	87.8	Expression levels of CD80 and CD86 compared to the groups of zinc sulfate ([4]; low and medium concentration): significantly decreased; Expression levels of the markers compared to the Immature DC group ([4]; low concentration (3.27 mg/mL zinc)): even lower; CD40 expression level [4, 10]: 13.1; CD80 expression level [4, 10]: 23.7; CD83 expression level [4, 10]: 10.3; CD86 expression level [4, 10]: 23.1; MHC II expression level [4, 10]: 14; CD11c expression level [4, 11]: 74.1; CD40 expression level [4, 11]: 6.24; CD80 expression level [4, 11]: 26.5; CD83 expression level [4, 11]: 4.38; CD86 expression level [4, 11]: 25.4; MHC II expression level [4, 11]: 6.41
